Reference: US7968548B2, “Melanocortin receptor-specific piperazine compounds with diamine groups” (Palatin Technologies, Inc., priority 2005, dated 2011)

Experiments:
MC1-R = target: T1, MC1-R (Mus musculus, UniProt Q01727); test: Competitive inhibition binding assay using [I125]-NDP-α-MSH, B-16 mouse melanoma cell membranes; conditions: B-16 mouse melanoma cells; for inhibition at 1 µM: 1 μM compound
T1 construct: from B-16 mouse melanoma cells (containing endogenous MC1-R); endogenous in cells; host or cells: B-16 mouse melanoma cells (membrane homogenates)
T1 sequence (Q01727 whole entry): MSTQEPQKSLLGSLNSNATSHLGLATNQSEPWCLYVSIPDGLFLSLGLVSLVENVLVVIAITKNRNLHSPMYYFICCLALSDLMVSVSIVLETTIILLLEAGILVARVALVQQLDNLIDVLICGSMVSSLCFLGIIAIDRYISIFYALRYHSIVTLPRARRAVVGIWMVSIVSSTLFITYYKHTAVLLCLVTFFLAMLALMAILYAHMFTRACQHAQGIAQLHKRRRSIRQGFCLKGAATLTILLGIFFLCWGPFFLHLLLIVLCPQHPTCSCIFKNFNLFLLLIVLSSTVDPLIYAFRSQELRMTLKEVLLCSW
Protocol: (§1) A competitive inhibition binding assay was performed using membrane homogenates prepared from HEK-293 cells that express recombinant hMC4-R, hMC3-R, or hMC5-R, and from B-16 mouse melanoma cells (containing endogenous MC1-R). In some instances, HEK-293 cells that express recombinant hMC1-R were employed. In the examples that follow, all MC3-R, MC4-R and MC5-R values are for human recombinant receptors. MC1-R values are for B-16 mouse melanoma cells, unless the heading is “hMC1-R”, in which case the value is for human recombinant MC1-R. Assays were performed in 96 well GF/B Millipore multiscreen filtration plates (MAFB NOB10) pre-coated with 0.5% bovine serum albumin (Fraction V). […] After incubation for 60 minutes at 37° C., the assay mixture was filtered and the membranes washed three times with ice-cold buffer. Filters were dried and counted in a gamma counter for bound radioactivity. […] Maximal specific binding (100%) was defined as the difference in radioactivity (cpm) bound to cell membranes in the absence and presence of 1 μM NDP-α-MSH. […] Each assay was conducted in triplicate and the actual mean values are described, with results less than 0% reported as 0%. Ki values for test compounds were determined using Graph-Pad Prism® curve-fitting software.

MC3-R = target: T2, MC3-R (Homo sapiens, UniProt P41968); test: Competitive inhibition binding assay using [I125]-NDP-α-MSH, HEK-293 membranes, recombinant hMC3-R; conditions: for inhibition at 1 µM: 1 μM compound
T2 construct: expressed in transfected cells; host or cells: HEK-293
T2 sequence (P41968 whole entry): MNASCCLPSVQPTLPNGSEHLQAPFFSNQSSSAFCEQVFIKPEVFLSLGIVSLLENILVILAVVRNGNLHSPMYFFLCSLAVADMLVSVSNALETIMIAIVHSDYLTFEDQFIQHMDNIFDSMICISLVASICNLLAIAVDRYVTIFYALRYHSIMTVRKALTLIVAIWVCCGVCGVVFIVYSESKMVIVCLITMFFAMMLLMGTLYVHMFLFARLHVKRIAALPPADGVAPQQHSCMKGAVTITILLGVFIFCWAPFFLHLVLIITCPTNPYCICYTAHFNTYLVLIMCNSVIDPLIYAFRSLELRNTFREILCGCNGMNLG
Protocol: as §1

MC5-R = target: T3, MC5-R (Homo sapiens, UniProt P33032); test: Competitive inhibition binding assay using [I125]-NDP-α-MSH, HEK-293 membranes, recombinant hMC5-R; conditions: for inhibition at 1 µM: 1 μM compound
T3 construct: expressed in transfected cells; host or cells: HEK-293
T3 sequence (P33032 whole entry): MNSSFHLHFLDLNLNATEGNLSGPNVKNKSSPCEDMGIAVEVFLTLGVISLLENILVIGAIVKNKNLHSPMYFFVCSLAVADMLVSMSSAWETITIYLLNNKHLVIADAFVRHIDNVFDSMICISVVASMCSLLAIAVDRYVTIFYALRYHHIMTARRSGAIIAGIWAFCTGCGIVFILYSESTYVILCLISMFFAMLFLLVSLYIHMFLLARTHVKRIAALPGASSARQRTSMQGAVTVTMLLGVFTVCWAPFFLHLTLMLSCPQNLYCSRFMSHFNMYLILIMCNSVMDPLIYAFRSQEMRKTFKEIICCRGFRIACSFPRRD
Protocol: as §1

MC4-R = MC4-R (Homo sapiens, UniProt P32245); test: Competitive inhibition binding assay using [I125]-NDP-α-MSH, HEK-293 membranes, recombinant hMC4-R; set-up: expressed in transfected cells; host or cells: HEK-293; conditions: for inhibition at 1 µM: 1 μM compound
MC4-R, sequence (P32245 whole entry): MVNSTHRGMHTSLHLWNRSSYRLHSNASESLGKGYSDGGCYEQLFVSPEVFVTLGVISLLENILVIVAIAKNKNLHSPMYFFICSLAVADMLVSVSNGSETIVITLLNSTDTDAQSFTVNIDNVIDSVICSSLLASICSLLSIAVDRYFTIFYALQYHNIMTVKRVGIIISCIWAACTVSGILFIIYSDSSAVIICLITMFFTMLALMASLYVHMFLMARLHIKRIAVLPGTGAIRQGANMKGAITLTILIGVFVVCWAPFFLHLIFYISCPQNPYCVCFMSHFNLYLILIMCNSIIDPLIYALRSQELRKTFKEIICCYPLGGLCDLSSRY
Protocol: as §1

hMC1-R = target: T4, hMC1-R (Homo sapiens, UniProt Q01726); test: Competitive inhibition binding assay using [I125]-NDP-α-MSH, HEK-293 membranes, recombinant hMC1-R; conditions: human recombinant MC1-R; for inhibition at 1 µM: 1 μM compound
T4 construct: expressed in transfected cells; host or cells: HEK-293
T4 sequence (Q01726 whole entry): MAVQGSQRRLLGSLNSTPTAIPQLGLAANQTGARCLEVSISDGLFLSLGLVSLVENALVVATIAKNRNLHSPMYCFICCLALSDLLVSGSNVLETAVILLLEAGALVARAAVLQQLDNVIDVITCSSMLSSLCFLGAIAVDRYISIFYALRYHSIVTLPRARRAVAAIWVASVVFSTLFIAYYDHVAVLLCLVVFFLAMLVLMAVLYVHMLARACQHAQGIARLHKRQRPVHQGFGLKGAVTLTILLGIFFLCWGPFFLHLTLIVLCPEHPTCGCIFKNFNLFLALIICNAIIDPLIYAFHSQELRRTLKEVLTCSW
Protocol: as §1

[1] = Mouse model IN feeding studies (body weight); type: in vivo; conditions: 20 hours
Protocol: Food intake and body weight after IN and IP dosing. Changes in food intake and body weight were evaluated for selected compounds. Male C57BL/6 mice were obtained from Jackson labs (Bar Harbor, Me.). Animals were individually housed in conventional plexiglass hanging cages and maintained on a controlled 12 hour on/off light cycle. Water and pelleted (Harlan Teklad 2018 18% Protein Rodent Diet) food was provided ad libitum. The mice were dosed IP (by intraperitoneal injection) after a 24 hour fast or IN (by intranasal administration) with vehicle or selected compounds (0.1-3 mg/kg, and in some cases up to 10 mg/kg). All animals were dosed once a day (or up to four consecutive days) at the start of the “lights off” period. The changes in food intake for the 4 hour and 20 hour period after dosing relative to control animals administered vehicle were determined. Body weights were determine 4 hours prior to dosing and 20 hours after dosing, and the change in body weight relative to control animals administered vehicle were determined.

Row | inhibition at 1 µM (MC1-R) [%] | Ki (MC3-R) [nM] | inhibition at 1 µM (MC3-R) [%] | Ki (MC5-R) [nM] | inhibition at 1 µM (MC5-R) [%] | Ki (MC4-R) [nM] | inhibition at 1 µM (MC4-R) [%] | inhibition at 1 µM (hMC1-R) [%] | Ki (hMC1-R) [nM] | Structure (SMILES) | Ki (MC1-R) [nM] | average decrease in body weight compared to control animals ([1]; 0.1 mg/kg) [%] | average decrease in body weight compared to control animals ([1]; 0.3 mg/kg) [%] | average decrease in body weight compared to control animals ([1]; 1 mg/kg) [%]
1 | 0 |  | 9 |  | 51 |  | 49 |  |  | Cc1ccc(C[C@H](CN2C[C@@H](C)N(C(=O)Cc3ccc4ccccc4c3)C[C@@H]2CCCN(C)CCN(C)C)N(C)C)c(C)c1 [Example 9, 1-((2R,5S)-4-[(R)-2-Dimethylamino-3-(2,4-dimethyl-phenyl)-propyl]-5-{3-[(2-dimethylamino-ethyl)-methyl-amino]-propyl}-2-methyl-piperazin-1-yl)-2-naphthalen-2-yl-ethaone] |  |  |  | 
2 | 26 |  | 28 |  | 48 |  | 52 |  |  | Cc1ccc(C[C@H](CN2C[C@@H](C)N(C(=O)Cc3ccc4ccccc4c3)C[C@@H]2CCCN(C)C2CCCCC2N(C)C)N(C)C)c(C)c1 (stereo partly shown) [Example 8] |  |  |  | 
3 | 4 |  | 0 |  | 44 |  | 56 |  |  | Cc1ccc(C[C@H](CN2C[C@@H](C)N(C(=O)Cc3ccc4ccccc4c3)C[C@@H]2CCCN(C)C2CCN(C)C2)N(C)C)c(C)c1 (stereo partly drawn) [Example 7, 1-((2R,5S)-4-[(R)-2-Dimethylamino-3-(2,4-dimethyl-phenyl)-propyl]-2-methyl-5-{3-[methyl-(1-methyl-pyrrolidin-3-yl)-amino]-propyl}-piperazin-1-yl)-2-aphthalen-2-yl-ethanone] |  |  |  | 
4 |  | 574 | 41 |  | 55 | 44 | 89 | 23 | 309 | CC(C)C[C@@H]1CN(C(=O)[C@H](N)Cc2ccc(Cl)cc2Cl)[C@@H](CCCNCCN)CN1C(=O)[C@H](N)Cc1ccc(Cl)cc1Cl [Example 12, (R)-2-Amino-1-{(2R,5S)-4-[(R)-2-amino-3-(2,4-dichloro-phenyl)-propionyl]-5-[3-(2-amino-ethylamino)-propyl]-2-isobutyl-piperazin-1-yl}-3-(2,4-dichloro-phenyl)-propan-1-one] |  | 0.7 | 3.1 | 
5 |  | 435 |  | 103 |  | 20 |  |  | 153 | NCCNCCCC[C@H]1CN(C(=O)[C@H](N)Cc2ccc3ccccc3c2)[C@H](CC2CCCCC2)CN1C(=O)[C@H](N)Cc1ccc2ccccc2c1 [Example 23, (R)-2-Amino-1-[(2R,5S)-5-[4-(2-amino-ethylamino)-butyl]-4-((R)-2-amino-3-naphthalen-2-yl-propionyl)-2-cyclohexylmethyl-piperazin-1-yl]-3-naphthalen-2-yl-propan-1-one] |  | 1.6 | 2.6 | 
6 |  | 321 | 62 | 253 | 49 | 9 | 99 | 68 | 215 | CC(C)C[C@@H]1CN(C(=O)[C@H](N)Cc2ccc3ccccc3c2)[C@@H](CCCCNCCN)CN1C(=O)[C@H](N)Cc1ccc2ccccc2c1 [Example 20, (R)-2-Amino-1-[(2R,5S)-5[4-(2-amino-ethylamino)-butyl]-4-((R)-2-amino-3-naphthalen-2-yl-propionyl)-2-isobutyl-piperazin-1-yl]-3-naphthalen-2-yl-propan-1-one] |  | 1.2 | 3 | 
7 | 33 | 535 | 47 | 38 | 98 | 255 | 88 |  |  | Cc1ccc(C[C@@H](N)CN2C[C@@H](C)N(C(=O)Cc3ccc4ccccc4c3)C[C@@H]2CCCNC2CCCCC2N)c(C)c1 (stereo partly drawn) [Example 6, 1-{(2R,5S)-5-[3-(2-Amino-cyclohexylamino)-propyl]-4-[(R)-2-amino-3-(2,4-dimethyl-phenyl)-propyl]-2-methyl-piperazin-1-yl}-2-naphthalen-2-yl-ethanone] | 580 |  |  | 
8 |  | 127 | 79 |  | 57 | 13 | 96 | 40 | 135 | CC(C)C[C@@H]1CN(C(=O)[C@H](N)Cc2ccc3ccccc3c2)[C@@H](CCCNCCN)CN1C(=O)[C@H](N)Cc1ccc2ccccc2c1 [Example 13, (R)-2-Amino-1-[(2R,5S)-5-[3-(2-amino-ethylamino)-propyl]-4-((R)-2-amino-3-naphthalen-2-yl-propionyl)-2-isobutyl-piperazin-1-yl]-3-naphthalen-2-yl-propan-1-one] |  | 1 | 3 | 3.2
9 | 28 |  | 15 |  | 54 |  | 47 |  |  | Cc1ccc(C[C@H](CN2C[C@@H](C)N(C(=O)Cc3ccc4ccccc4c3)C[C@@H]2CCCN2CCN(C)CC2)N(C)C)c(C)c1 [Example 10, 1-{(2R,5S)-4-[(R)-2-Dimethylamino-3-(2,4-dimethyl-phenyl)-propyl]-2-methyl-5-[3-(4-methyl-piperazin-1-yl)-propyl]-piperazin-1-yl}-2-naphthalen-2-I-ethanone] |  |  |  | 
10 |  | 69 |  | 179 |  | 4 |  |  | 116 | CC(C)C[C@@H]1CN(C(=O)[C@H](N)Cc2ccc(Cl)c(Cl)c2)[C@@H](CCCCNCCN)CN1C(=O)[C@H](N)Cc1ccc(Cl)c(Cl)c1 [Example 22, (R)-2-Amino-1-{(2R,5S)-4-[(R)-2-amino-3-(3,4-dichloro-phenyl)-propionyl]-5-[4-(2-amino-ethylamino)-butyl]-2-isobutyl-piperazin-1-yl}-3-(3,4-dichloro-phenyl)-propan-1-one] |  | 0.6 | 4.9 | 

Row | Structure (SMILES) | inhibition at 1 µM (MC1-R) [%] | Ki (MC3-R) [nM] | inhibition at 1 µM (MC3-R) [%] | Ki (MC5-R) [nM] | inhibition at 1 µM (MC5-R) [%] | Ki (MC4-R) [nM] | inhibition at 1 µM (MC4-R) [%] | inhibition at 1 µM (hMC1-R) [%] | Ki (hMC1-R) [nM] | Ki (MC1-R) [nM] | average decrease in body weight compared to control animals ([1]; 0.1 mg/kg) [%] | average decrease in body weight compared to control animals ([1]; 0.3 mg/kg) [%] | average decrease in body weight compared to control animals ([1]; 1 mg/kg) [%]
11 | Cc1ccc(C[C@@H](N)CN2C[C@@H](C)N(C(=O)Cc3ccc4ccccc4c3)C[C@@H]2CCCNC2CCNC2)c(C)c1 (stereo partly drawn) [Example 5, 1-{(2R,5S)-4-[(R)-2-Amino-3-(2,4-dimethyl-phenyl)-propyl]-2-methyl-5-[3-(pyrrolidin-3-ylamino)-propyl]-piperazin-1-yl}-2-naphthalen-2-yl-ethanone] | 41 | 395 | 75 | 31 | 96 | 387 | 81 |  |  | 685 |  |  | 
12 | Cc1ccc(C[C@@H](N)CN2C[C@@H](C)N(C(=O)Cc3ccc4ccccc4c3)C[C@@H]2CCCN2CCNCC2)c(C)c1 [Example 4] | 12 |  | 43 |  | 97 |  | 55 |  |  |  |  |  | 
13 | Cc1ccc(C[C@@H](N)CN2C[C@@H](C)N(C(=O)Cc3ccc4ccccc4c3)C[C@@H]2CCCNCCN)c(C)c1 [Example 3] | 41 | 320 | 82 | 20 | 94 | 160 | 92 |  |  | 660 |  |  | 
